# “Also recorded” adds a separate entry of the source. Where no end group is shown, it is not given here.
# Assays:
# Format in all cases: cell-based
# [1] = molecular target: T1, truncated rat PTH-1 receptor (rΔNt) (Rattus norvegicus, UniProt P25961, E586G); experiment: cAMP response in COS-7 cells transiently transfected with truncated rat PTH-1 receptor (rΔNt); conditions: for cAMP response of cells expressing rΔNt (in words): secretin(1–27) 1 mM
# T1 construct: contains an open reading frame encoding a protein of about 435 amino acid residues; expressed in transfected cells; host or cells: COS-7, transient (DEAE-dextran), pCDNA-1 based plasmid
# T1 sequence (P25961 with tags, fused parts or gaps E586G): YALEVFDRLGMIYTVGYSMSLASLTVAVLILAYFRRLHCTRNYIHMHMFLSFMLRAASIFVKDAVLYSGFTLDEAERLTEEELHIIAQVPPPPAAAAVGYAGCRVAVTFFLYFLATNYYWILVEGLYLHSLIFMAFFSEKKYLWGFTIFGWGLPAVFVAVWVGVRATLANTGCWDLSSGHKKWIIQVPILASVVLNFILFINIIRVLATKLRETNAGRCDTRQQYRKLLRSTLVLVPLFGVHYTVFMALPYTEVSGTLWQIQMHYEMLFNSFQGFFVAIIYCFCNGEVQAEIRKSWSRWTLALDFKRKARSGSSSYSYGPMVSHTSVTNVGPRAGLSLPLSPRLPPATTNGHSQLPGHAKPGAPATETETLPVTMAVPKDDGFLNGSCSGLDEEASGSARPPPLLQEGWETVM
# From the text: (§1) FIG. 4. PTH Responses of Intact and Truncated PTH-1 Receptors in COS-7 Cells. Shown at the top are schematics of the intact (A) and truncated (B) rat PTH-1 receptors used for transient transfection of COS-7 cells, and subsequent cAMP response assays. The conserved extracellular cysteine residues are depicted as open circles and numbered according to sequence position, and the nine amino acids of the epitope tag (HA) in rWT-HA are shaded. The tics at residue 26 and 181 indicate the endpoints of the deletion in rΔNt. Based on the predicted signal peptide cleavage site at Ala-22, residues 23–25 in rΔNt are joined to residue 182. The cAMP responses of COS-7 cells expressing the intact receptor (C) and rΔNt (D) to rPTH(1–34) (J) or rPTH(1–14) (C) are also shown. The graphs show combined data (mean±s.e.m.) from five separate experiments, each performed in duplicate. […]
# (§2) FIG. 6. Specificity of the Truncated Ligand and PTH Receptor. COS-7 cells transiently transfected with either rWT-HA (A), rΔNt (B), or the intact rat secretin receptor (C), were treated with the indicated peptides for 60 min at 22° C., and the resulting intracellular cAMP levels were quantified by RIA. Concentration of peptides present during the incubations were: rPTH(1–34), 0.1 mM; rPTH(1–14) 100 mM; secretin(1–27). […] Shown are data (mean±s.e.m.) from one experiment performed in duplicate, and this was repeated twice more with equivalent results.
# (§3) For studies with the intact and truncated rat PTH-1 receptors, transient transfections of COS-7 cells were performed using DEAE-dextran as described previously (Bergwitz, C., et al., J. Biol. Chem. 272:28861–28868)). The construction and initial characterization of the pCDNA-1 based plasmids encodin either the intact or truncated rat PTH-1 receptor has been described previously (Lee, C., et al., Endocrinology 135(4):1488–1495)). […] The truncated rat PTH-1 receptor (rΔNt) is deleted for exons E1 through exon G (residues 26 to 181). Assuming that signal peptidase cleavage occurs between Ala-22 and Tyr-23 (Nielsen, H., et al., Protein Engineering 10:1–6 (1997)), rΔNt is predicted to have for its N-terminus residues Dautzenberg, F., et al., Proc. Natl. Acad. Sci. 95:4941–4946 (1998); Holtmann, M., et al., J. Biol. Chem. 270:14394–14398 (1995); DeAlmeida, V. and Mayo, K., Mol. Endo. 12:750–765 (1998)) joined to Glu-182 (FIG. 3B). COS-7 cells were transfected in 24-well plates when the cells were 85 to 95% of confluency, using 200 ng of plasmid DNA that was purified by cesium chloride/ethidium bromide gradient centrifugation for each well. Assays were conducted 72 to 96 hours after transfection. Under these conditions about ˜20% of the COS-7 cells become transfected and express about 5×10^6 surface PTH receptors per cell (Bergwitz, C., et al., J. Biol. Chem. 272:28861–28868)).
# (§4) Intracellular cyclic AMP: Transfected COS-7 or HKRK-B7 cells were rinsed with 500 ml of binding buffer, (50 mM Tris-HCl, pH 7.7, 100 mM NaCl, 5 mM KCl, 2 mM CaC12, 5% heat-inactivated horse serum, 0.5% heat-inactivated fetal bovine serum) and 200 ml of IBMX buffer (DMEM containing 2 mM IBMX, 1 mg/ml bovine serum albumin, 35 mM Hepes-NaOH, pH 7.4) and […] of binding buffer or binding buffer containing various amounts of peptide were added. The plates were incubated for 60 minutes at room temperature. The buffer was then withdrawn and the cells were frozen on dry ice, treated with 0.5 ml of 50 mM HCl, and refrozen. After the thawing, the lysate was diluted 30-fold in dH20 and an aliquot was analyzed for cAMP content by determined radioimmunoassay using unlabeled cAMP as a standard.
# (§5) Experiments utilized COS-7 cells transfected with either the intact rat PTH-1 receptor (rWT-HA, FIG. 4A) or a truncated rat PTH-1 receptor with most of the amino-terminal extracellular domain deleted (rΔNt, FIG. 4B).
# [2] = test system: truncated rat PTH-1 receptor (rΔNt); experiment: as above; conditions: COS-7 cells, cAMP
# From the text: as §1, §2, §3, §4, §5
# [3] = test system: parental LLC-PK1 cells (no PTH receptors, endogenous calcitonin receptors); experiment: cAMP response in untransfected parental LLC-PK1 cells; conditions: untransfected LLC-PK1 cells expressing calcitonin receptor but no PTH receptors
# Experimental: FIG. 2. cAMP-stimulating Activity of PTH Fragments in LLC-PK1 Cells. A) Rat PTH(1–34) analog or amino-terminal rPTH fragments were tested for cAMP-stimulating activity in an LLC-P1-derived cell line (HKRK-B7) stably transfected with the human PTH-1 receptor. Cells were treated with peptide at the indicated doses for 60 min at 22° C. Intracellular cAMP was measured by RIA, as described in Experimental Procedures. Shown are combined data (mean±s.e.m.) from 3 separate experiments, each performed in duplicate. B) HKRK-B7 cells, or untransfected LLC-PK1 were treated with rPTH(1–34) or rPTH(1–14), and intracellular cAMP was measured. Shown are data (mean±s.e.m.) from a single representative experiment performed in duplicate.
# as §4, with “The buffer was then withdrawn and the cells were frozen on dry ice, treated with 0.5 ml of 50 mM HCl, and refrozen.” left out, “standard. […]” for “standard.”
Compound,"greater potency with rΔNt in comparison to the potency of PTH(1–14) ([1]; COS-7 cells, cAMP)",cAMP response of cells expressing rΔNt (in words) [1],decrease in potency with rΔNt as compared to potency with rWT-HA [2],cAMP responsiveness of parental LLC-PK1 cells [3],potency relative to PTH(1–34) with rΔNt ([1]; COS-7 cells transfected with rΔNt),potency/activity with rΔNt compared with rWT-HA (in words) [2]
"CCCC[C@H](NC(=O)[C@H](CCCNC(=N)N)NC(=O)[C@H](CCC(=O)O)NC(=O)[C@@H](NC(=O)[C@H](CO)NC(=O)[C@H](C)NC(=O)[C@H](CC(C)C)NC(=O)[C@H](Cc1c[nH]cn1)NC(=O)[C@H](CCCCN)NC(=O)CNC(=O)[C@H](CC(C)C)NC(=O)[C@H](CC(N)=O)NC(=O)[C@H](Cc1c[nH]cn1)NC(=O)[C@H](CCCC)NC(=O)[C@H](CC(C)C)NC(=O)[C@H](CCC(N)=O)NC(=O)[C@@H](NC(=O)[C@H](CCC(=O)O)NC(=O)[C@H](CO)NC(=O)[C@@H](NC(=O)[C@H](C)N)C(C)C)[C@@H](C)CC)C(C)C)C(=O)N[C@@H](CCC(N)=O)C(=O)N[C@@H](Cc1c[nH]c2ccccc12)C(=O)N[C@@H](CC(C)C)C(=O)N[C@@H](CCCNC(=N)N)C(=O)N[C@@H](CCCCN)C(=O)N[C@@H](CCCCN)C(=O)N[C@@H](CC(C)C)C(=O)N[C@@H](CCC(N)=O)C(=O)N[C@@H](CC(=O)O)C(=O)N[C@H](C(=O)N[C@@H](Cc1c[nH]cn1)C(=O)N[C@@H](CC(N)=O)C(=O)N[C@@H](Cc1ccc(O)cc1)C(N)=O)C(C)C [PTH(1–34), [Nle^8,21,Tyr^34]rPTH-(1–34)NH2]",100 fold,responded,100 fold,unresponsive,,
"PTH(1–14): Amino-terminal peptide fragment based on the rat PTH sequence, residues 1–14, C-terminally amidated (AVSEIQLMHNLGKH-NH2)",,responded,,did not activate; also recorded: unresponsive,only two orders of magnitude weaker,equipotent with the two receptors; also recorded: equivalent activity; also recorded: not affected

# Source: patent US7169567B1, “Screening assay utilizing the PTH receptor” (The General Hospital Corporation, priority 1998, dated 2007)
